Source: paper PMC6366416, “Synthesis and in vitro anticancer activity of certain novel 1-(2-methyl-6-arylpyridin-3-yl)-3-phenylureas as apoptosis-inducing agents” (Journal of Enzyme Inhibition and Medicinal Chemistry, 2019)

How the values were obtained:
[1] = tested on: 60 cancer cell lines (NCI, USA); test: NCI one-dose SRB assay, whole panel; type: cell-based, human; conditions: 10 μM; cell lines with GI% higher than 10%
Description: (§1) The antitumor assay was performed according to the protocol of the Drug Evaluation Branch, NCI, Bethesda[24–26]. A 48 h drug exposure protocol was adopted, and sulforhodamine B (SRB) assay[27] was utilized to assess the cell growth and viability, as reported earlier[17]^,[28].
(§2) The structures of all the newly synthesized pyridines 5a–l were submitted to the National Cancer Institute (NCI) Developmental Therapeutic Program (www.dtp.nci.nih.gov). […] Nine different types of cancer were tested in this assay: colon, ovarian, prostate, leukemia, melanoma, CNS, renal, breast and lung cancers. A 48 h drug exposure protocol was adopted, and sulforhodamine B (SRB) assay[27] was utilized to assess the cell growth and viability.

HL-60(TB) = test: NCI one-dose SRB growth inhibition; type: cell-based; conditions: Homo sapiens, Leukemia, 48 h, read-out: GI% HL-60(TB)
Description: as §1, §2

SK-OV-3 = test: NCI one-dose SRB growth inhibition; type: cell-based; conditions: Homo sapiens, Ovarian Cancer, 48 h, read-out: GI% SK-OV-3
Description: as §1, §2

SW-620 = test: NCI one-dose SRB growth inhibition; type: cell-based; conditions: Homo sapiens, Colon Cancer, 48 h, read-out: GI% SW-620
Description: as §1, §2

786-0 = test: NCI one-dose SRB growth inhibition; type: cell-based; conditions: Homo sapiens, Renal Cancer, 48 h, read-out: GI% 786-0
Description: as §1, §2

SR = test: NCI one-dose SRB growth inhibition; type: cell-based; conditions: Homo sapiens, 48 h, Leukemia, read-out: GI% SR
Description: as §1, §2

SK-MEL-2 = test: NCI one-dose SRB growth inhibition; type: cell-based; conditions: Homo sapiens, Melanoma, 48 h, read-out: GI% SK-MEL-2
Description: as §1, §2

NCI/ADR-RES = test: NCI one-dose SRB growth inhibition; type: cell-based; conditions: Homo sapiens, Ovarian Cancer, 48 h, read-out: GI% NCI/ADR-RES
Description: as §1, §2

NCI-H522 = test: NCI one-dose SRB growth inhibition; type: cell-based; conditions: Homo sapiens, NCI-H522, 48 h, Non-Small Cell Lung Cancer, read-out: GI% NCI-H522
Description: as §1, §2

NCI-H23 = test: NCI one-dose SRB growth inhibition; type: cell-based; conditions: Homo sapiens, Non-Small Cell Lung Cancer, 48 h, read-out: GI% NCI-H23
Description: as §1, §2

UACC-62 = test: NCI one-dose SRB growth inhibition; type: cell-based; conditions: Homo sapiens, UACC-62, 48 h, Melanoma, read-out: GI% UACC-62
Description: as §1, §2

UACC-257 = test: NCI one-dose SRB growth inhibition; type: cell-based; conditions: Homo sapiens, UACC-257, read-out: GI% UACC-257, Melanoma, 48 h
Description: as §1, §2

EKVX = test: NCI one-dose SRB growth inhibition; type: cell-based; conditions: Homo sapiens, Non-Small Cell Lung Cancer, 48 h, read-out: GI% EKVX
Description: as §1, §2

MOLT-4 = test: NCI one-dose SRB growth inhibition; type: cell-based; conditions: Homo sapiens, Leukemia, 48 h, read-out: GI% MOLT-4
Description: as §1, §2

HOP-92 = test: NCI one-dose SRB growth inhibition; type: cell-based; conditions: Homo sapiens, Non-Small Cell Lung Cancer, 48 h, read-out: GI% HOP-92
Description: as §1, §2

RPMI-8226 = test: NCI one-dose SRB growth inhibition; type: cell-based; conditions: Homo sapiens, RPMI-8226, 48 h, Leukemia, read-out: GI% RPMI-8226
Description: as §1, §2

NCI-H460 = test: NCI one-dose SRB growth inhibition; type: cell-based; conditions: Homo sapiens, Non-Small Cell Lung Cancer, 48 h, read-out: GI% NCI-H460
Description: as §1, §2

DU-145 = test: NCI one-dose SRB growth inhibition; type: cell-based; conditions: Homo sapiens, Prostate, 48 h, read-out: GI% DU-145
Description: as §1, §2

LOX IMVI = test: NCI one-dose SRB growth inhibition; type: cell-based; conditions: Homo sapiens, Melanoma, 48 h, read-out: GI% LOX IMVI
Description: as §1, §2

NCI-H322M = test: NCI one-dose SRB growth inhibition; type: cell-based; conditions: Homo sapiens, Non-Small Cell Lung Cancer, 48 h, read-out: GI% NCI-H322M
Description: as §1, §2

HS 578T = test: NCI one-dose SRB growth inhibition; type: cell-based; conditions: Homo sapiens, Breast Cancer, 48 h, read-out: GI% HS 578T
Description: as §1, §2

SK-MEL-5 = test: NCI one-dose SRB growth inhibition; type: cell-based; conditions: Homo sapiens, Melanoma, 48 h, read-out: GI% SK-MEL-5
Description: as §1, §2

OVCAR-5 = test: NCI one-dose SRB growth inhibition; type: cell-based; conditions: Homo sapiens, Ovarian Cancer, 48 h, read-out: GI% OVCAR-5
Description: as §1, §2

HCT-15 = test: NCI one-dose SRB growth inhibition; type: cell-based; conditions: Homo sapiens, HCT-15, 48 h, Colon Cancer, read-out: GI% HCT-15
Description: as §1, §2

UO-31 = test: NCI one-dose SRB growth inhibition; type: cell-based; conditions: Homo sapiens, Renal Cancer, 48 h, read-out: GI% UO-31
Description: as §1, §2

NCI-H226 = test: NCI one-dose SRB growth inhibition; type: cell-based; conditions: Homo sapiens, Non-Small Cell Lung Cancer, 48 h, read-out: GI% NCI-H226
Description: as §1, §2

COLO 205 = test: NCI one-dose SRB growth inhibition; type: cell-based; conditions: Homo sapiens, Colon Cancer, 48 h, read-out: GI% COLO 205
Description: as §1, §2

HT29 = test: NCI one-dose SRB growth inhibition; type: cell-based; conditions: Homo sapiens, HT-29, 48 h, Colon Cancer, read-out: GI% HT29
Description: as §1, §2

SF-295 = test: NCI one-dose SRB growth inhibition; type: cell-based; conditions: Homo sapiens, CNS Cancer, 48 h, read-out: GI% SF-295
Description: as §1, §2

MCF7 = test: NCI one-dose SRB growth inhibition; type: cell-based; conditions: Homo sapiens, Breast Cancer, 48 h, read-out: GI% MCF7
Description: as §1, §2

OVCAR-3 = test: NCI one-dose SRB growth inhibition; type: cell-based; conditions: Homo sapiens, OVCAR-3, 48 h, Ovarian Cancer, read-out: GI% OVCAR-3
Description: as §1, §2

A498 = test: NCI one-dose SRB growth inhibition; type: cell-based; conditions: Homo sapiens, Renal Cancer, 48 h, read-out: GI% A498
Description: as §1, §2

SMILES | melting point | Sensitive cell lines no. [1] | inhibition at 10 µM (HL-60(TB)) | inhibition at 10 µM (SK-OV-3) | inhibition at 10 µM (SW-620) | inhibition at 10 µM (786-0) | inhibition at 10 µM (SR) | inhibition at 10 µM (SK-MEL-2) | inhibition at 10 µM (NCI/ADR-RES) | inhibition at 10 µM (NCI-H522) | inhibition at 10 µM (NCI-H23) | inhibition at 10 µM (UACC-62) | inhibition at 10 µM (UACC-257) | inhibition at 10 µM (EKVX) | inhibition at 10 µM (MOLT-4) | inhibition at 10 µM (HOP-92) | inhibition at 10 µM (RPMI-8226) | inhibition at 10 µM (NCI-H460) | inhibition at 10 µM (DU-145) | inhibition at 10 µM (LOX IMVI) | also measured
Cc1nc(-c2cccs2)ccc1NC(=O)Nc1ccc(Cl)cc1 [Compound 5i, 1-(4-Chlorophenyl)-3-(2-methyl-6-(thiophen-2-yl)pyridin-3-yl)urea] | 234 to 236 °C | 9 | 20% | < 10% | < 10% | < 10% | < 10% | < 10% | < 10% | 28% | < 10% | 19% | 23% | < 10% | 15% | < 10% | < 10% | < 10% | < 10% | < 10% | inhibition at 10 µM (NCI-H322M): < 10%; inhibition at 10 µM (HS 578T): < 10%; inhibition at 10 µM (SK-MEL-5): < 10%; inhibition at 10 µM (OVCAR-5): < 10%; inhibition at 10 µM (HCT-15): < 10%; inhibition at 10 µM (UO-31): < 10%; inhibition at 10 µM (NCI-H226): < 10%; inhibition at 10 µM (COLO 205): < 10%; inhibition at 10 µM (HT29): < 10%; inhibition at 10 µM (SF-295): < 10%; inhibition at 10 µM (MCF7): 12%; inhibition at 10 µM (OVCAR-3): < 10%; inhibition at 10 µM (A498): < 10%
CCOC(=O)c1ccc(NC(=O)Nc2ccc(-c3cccs3)nc2C)cc1 [Compound 5j, Ethyl 4-(3-(2-methyl-6-(thiophen-2-yl)pyridin-3-yl)ureido)benzoate] | 203 to 204 °C | 24 | 10% | < 10% | < 10% | 12% | 44% | 11% | < 10% | 52% | < 10% | < 10% | < 10% | < 10% | 44% | < 10% | 56% | 43% | < 10% | 10% | inhibition at 10 µM (NCI-H322M): 17%; inhibition at 10 µM (HS 578T): < 10%; inhibition at 10 µM (SK-MEL-5): 22%; inhibition at 10 µM (OVCAR-5): < 10%; inhibition at 10 µM (HCT-15): 30%; inhibition at 10 µM (UO-31): < 10%; inhibition at 10 µM (NCI-H226): < 10%; inhibition at 10 µM (COLO 205): < 10%; inhibition at 10 µM (HT29): 19%; inhibition at 10 µM (SF-295): < 10%; inhibition at 10 µM (MCF7): 21%; inhibition at 10 µM (OVCAR-3): < 10%; inhibition at 10 µM (A498): < 10%
